Patent US10681909B2, “Herbicidal triazoles” (FMC Corporation, priority 2014, dated 2020)

Legend:
[1] = tested on: blackgrass; assay: Test A postemergence; type: in vivo, Alopecurus myosuroides; conditions: 0 to 100 scale (0 no effect, 100 complete control), approx. 10 d
From the text: (§1) Seeds of plant species selected from barnyardgrass (Echinochloa crus-galli), crabgrass, large (large crabgrass, Digitaria sanguinalis), kochia (Kochia scoparia), ragweed (common ragweed, Ambrosia elatior), foxtail, giant (giant foxtail, Setaria faberii), morningglory (Ipomoea spp.), pigweed (Amaranthus retroflexus), velvetleaf (Abutilon theophrasti), ryegrass, Italian (Italian ryegrass, Lolium multiflorum), wheat (Triticum aestivum), and corn (Zea mays) were planted into a blend of loam soil and sand and treated preemergence with a directed soil spray using test chemicals formulated in a non-phytotoxic solvent mixture which included a surfactant.
(§2) At the same time, plants selected from these crop and weed species and also blackgrass (Alopecurus myosuroides), and galium (catchweed bedstraw, Galium aparine), were planted in pots containing the same blend of loam soil and sand and treated with postemergence applications of test chemicals formulated in the same manner. Plants ranged in height from 2 to 10 cm and were in the one- to two-leaf stage for the postemergence treatment. Treated plants and untreated controls were maintained in a greenhouse for approximately 10 d, after which time all treated plants were compared to untreated controls and visually evaluated for injury. Plant response ratings, summarized in Table A, are based on a 0 to 100 scale where 0 is no effect and 100 is complete control. A dash (-) response means no test result.

[2] = tested on: ryegrass, Italian; assay: Test A preemergence; type: in vivo, Lolium multiflorum; conditions: 0 to 100 scale (0 no effect, 100 complete control)
From the text: as §1, §2

[3] = tested on: ryegrass, Italian; assay: Test A postemergence; type: in vivo, Lolium multiflorum; conditions: 0 to 100 scale (0 no effect, 100 complete control), approx. 10 d
From the text: as §1, §2

[4] = tested on: barnyardgrass; assay: Test A postemergence; type: in vivo, Echinochloa crus-galli; conditions: 0 to 100 scale (0 no effect, 100 complete control), approx. 10 d
From the text: as §1, with “surfactant. At the same time, plants selected from these crop and weed species and also blackgrass (Alopecurus myosuroides), and galium (catchweed bedstraw, Galium aparine), were planted in pots containing the same blend of loam soil and sand and treated with postemergence applications of test chemicals formulated in the same manner. Plants ranged in height from 2 to 10 cm and were in the one- to two-leaf stage for the postemergence treatment. […] A dash (-) response means no test result.” for “surfactant.”

[5] = tested on: foxtail, giant; assay: Test A preemergence; type: in vivo, Setaria faberii; conditions: 0 to 100 scale (0 no effect, 100 complete control)
From the text: as §1, with “surfactant. At the same time, plants selected from these crop and weed species and also blackgrass (Alopecurus myosuroides), and galium (catchweed bedstraw, Galium aparine), were planted in pots containing the same blend of loam soil and sand and treated with postemergence applications of test chemicals formulated in the same manner. Plants ranged in height from 2 to 10 cm and were in the one- to two-leaf stage for the postemergence treatment. […] A dash (-) response means no test result.” for “surfactant.”

[6] = tested on: galium; assay: Test A postemergence; type: in vivo, Galium aparine; conditions: 0 to 100 scale (0 no effect, 100 complete control), approx. 10 d
From the text: as §1, §2

[7] = tested on: barnyardgrass; assay: Test A preemergence; type: in vivo, Echinochloa crus-galli; conditions: 0 to 100 scale (0 no effect, 100 complete control)
From the text: as §1, with “surfactant. At the same time, plants selected from these crop and weed species and also blackgrass (Alopecurus myosuroides), and galium (catchweed bedstraw, Galium aparine), were planted in pots containing the same blend of loam soil and sand and treated with postemergence applications of test chemicals formulated in the same manner. Plants ranged in height from 2 to 10 cm and were in the one- to two-leaf stage for the postemergence treatment. […] A dash (-) response means no test result.” for “surfactant.”

[8] = tested on: pigweed; assay: Test A postemergence; type: in vivo, Amaranthus retroflexus; conditions: 0 to 100 scale (0 no effect, 100 complete control), approx. 10 d
From the text: as §1, with “surfactant. At the same time, plants selected from these crop and weed species and also blackgrass (Alopecurus myosuroides), and galium (catchweed bedstraw, Galium aparine), were planted in pots containing the same blend of loam soil and sand and treated with postemergence applications of test chemicals formulated in the same manner. Plants ranged in height from 2 to 10 cm and were in the one- to two-leaf stage for the postemergence treatment. […] A dash (-) response means no test result.” for “surfactant.”

[9] = tested on: wheat; assay: Test A postemergence; type: in vivo, Triticum aestivum; conditions: 0 to 100 scale (0 no effect, 100 complete control), approx. 10 d
From the text: as §1, with “surfactant. At the same time, plants selected from these crop and weed species and also blackgrass (Alopecurus myosuroides), and galium (catchweed bedstraw, Galium aparine), were planted in pots containing the same blend of loam soil and sand and treated with postemergence applications of test chemicals formulated in the same manner. Plants ranged in height from 2 to 10 cm and were in the one- to two-leaf stage for the postemergence treatment. […] A dash (-) response means no test result.” for “surfactant.”

[10] = tested on: kochia; assay: Test A preemergence; type: in vivo, Kochia scoparia; conditions: 0 to 100 scale (0 no effect, 100 complete control)
From the text: as §1, §2

[11] = tested on: pigweed; assay: Test A preemergence; type: in vivo, Amaranthus retroflexus; conditions: 0 to 100 scale (0 no effect, 100 complete control)
From the text: as §1, with “surfactant. At the same time, plants selected from these crop and weed species and also blackgrass (Alopecurus myosuroides), and galium (catchweed bedstraw, Galium aparine), were planted in pots containing the same blend of loam soil and sand and treated with postemergence applications of test chemicals formulated in the same manner. Plants ranged in height from 2 to 10 cm and were in the one- to two-leaf stage for the postemergence treatment. […] A dash (-) response means no test result.” for “surfactant.”

[12] = tested on: kochia; assay: Test A postemergence; type: in vivo, Kochia scoparia; conditions: 0 to 100 scale (0 no effect, 100 complete control), approx. 10 d
From the text: as §1, §2

[13] = tested on: corn; assay: Test A postemergence; type: in vivo, Zea mays; conditions: 0 to 100 scale (0 no effect, 100 complete control), approx. 10 d
From the text: as §1, with “surfactant. At the same time, plants selected from these crop and weed species and also blackgrass (Alopecurus myosuroides), and galium (catchweed bedstraw, Galium aparine), were planted in pots containing the same blend of loam soil and sand and treated with postemergence applications of test chemicals formulated in the same manner. Plants ranged in height from 2 to 10 cm and were in the one- to two-leaf stage for the postemergence treatment. […] A dash (-) response means no test result.” for “surfactant.”

[14] = tested on: ragweed; assay: Test A postemergence; type: in vivo, Ambrosia elatior; conditions: 0 to 100 scale (0 no effect, 100 complete control), approx. 10 d
From the text: as §1, §2

[15] = tested on: ragweed; assay: Test A preemergence; type: in vivo, Ambrosia elatior; conditions: 0 to 100 scale (0 no effect, 100 complete control)
From the text: as §1, §2

[16] = tested on: foxtail, giant; assay: Test A postemergence; type: in vivo, Setaria faberii; conditions: 0 to 100 scale (0 no effect, 100 complete control), approx. 10 d
From the text: as §1, with “surfactant. At the same time, plants selected from these crop and weed species and also blackgrass (Alopecurus myosuroides), and galium (catchweed bedstraw, Galium aparine), were planted in pots containing the same blend of loam soil and sand and treated with postemergence applications of test chemicals formulated in the same manner. Plants ranged in height from 2 to 10 cm and were in the one- to two-leaf stage for the postemergence treatment. […] A dash (-) response means no test result.” for “surfactant.”

Row | Compound | Plant response rating, Blackgrass ([1]; 31 g ai/ha) | Plant response rating, Blackgrass ([1]; 125 g ai/ha) | Plant response rating, Ryegrass, Italian ([2]; 31 g ai/ha) | Plant response rating, Ryegrass, Italian ([2]; 125 g ai/ha) | Plant response rating, Ryegrass, Italian ([3]; 31 g ai/ha) | Plant response rating, Ryegrass, Italian ([3]; 125 g ai/ha) | Plant response rating, Barnyardgrass ([4]; 31 g ai/ha) | Plant response rating, Barnyardgrass ([4]; 125 g ai/ha) | Plant response rating, Foxtail, Giant ([5]; 31 g ai/ha) | Plant response rating, Foxtail, Giant ([5]; 125 g ai/ha) | Plant response rating, Galium ([6]; 31 g ai/ha) | Plant response rating, Galium ([6]; 125 g ai/ha) | Plant response rating, Barnyardgrass ([7]; 31 g ai/ha) | Plant response rating, Barnyardgrass ([7]; 125 g ai/ha) | Plant response rating, Pigweed ([8]; 31 g ai/ha) | Plant response rating, Pigweed ([8]; 125 g ai/ha) | Plant response rating, Wheat ([9]; 31 g ai/ha) | Plant response rating, Wheat ([9]; 125 g ai/ha) | Plant response rating, Kochia ([10]; 31 g ai/ha) | Plant response rating, Kochia ([10]; 125 g ai/ha) | other results
1 | COc1nc(-c2ccc(OC(F)(F)F)cc2)nn1Cc1ccnc(C(F)(F)F)c1 [Compound 40] | 0 | 0 | 0 | 0 | 0 | 0 | 0 | 0 | 0 | 0 | 20 | 30 | 0 | 0 | 30 | 70 | 0 | 0 | 0 | 0 | Plant response rating, Pigweed ([11]; 31 g ai/ha): 0; Plant response rating, Pigweed ([11]; 125 g ai/ha): 30; Plant response rating, Kochia ([12]; 31 g ai/ha): 0; Plant response rating, Kochia ([12]; 125 g ai/ha): 0; Plant response rating, Corn ([13]; 31 g ai/ha): 0; Plant response rating, Corn ([13]; 125 g ai/ha): 20; Plant response rating, Ragweed ([14]; 31 g ai/ha): 0; Plant response rating, Ragweed ([14]; 125 g ai/ha): 0; Plant response rating, Ragweed ([15]; 31 g ai/ha): 0; Plant response rating, Ragweed ([15]; 125 g ai/ha): 0; Plant response rating, Foxtail, Giant ([16]; 31 g ai/ha): 0; Plant response rating, Foxtail, Giant ([16]; 125 g ai/ha): 0
2 | CCCOc1nc(-c2ccc(C(F)(F)F)cc2)nn1Cc1ccnc(C(F)(F)F)c1 [Compound 41] | 20 | 30 | 20 | 40 | 20 | 30 | 30 | 40 | 70 | 90 | 60 | 90 | 30 | 40 | 80 | 90 | 0 | 20 | 30 | 60 | Plant response rating, Pigweed ([11]; 31 g ai/ha): 90; Plant response rating, Pigweed ([11]; 125 g ai/ha): 90; Plant response rating, Kochia ([12]; 31 g ai/ha): 70; Plant response rating, Kochia ([12]; 125 g ai/ha): 90; Plant response rating, Corn ([13]; 31 g ai/ha): 20; Plant response rating, Corn ([13]; 125 g ai/ha): 30; Plant response rating, Ragweed ([14]; 31 g ai/ha): 50; Plant response rating, Ragweed ([14]; 125 g ai/ha): 70; Plant response rating, Ragweed ([15]; 31 g ai/ha): 20; Plant response rating, Ragweed ([15]; 125 g ai/ha): 30; Plant response rating, Foxtail, Giant ([16]; 31 g ai/ha): 30; Plant response rating, Foxtail, Giant ([16]; 125 g ai/ha): 50
